Assay results reported in ChEMBL document CHEMBL1201862, “PubChem BioAssay data set” (2004).
Calls of active or inactive are those of the source.

Columns and labels:
[1] = Luminescence Cell-Based Dose Confirmation HTS to Identify Inhibitors of Platelet Dense Granule Release. [Related pubchem assays: 1663 (Primary HTS), 1678 (Summary of Project)]; format: functional
[2] = biological target: Luciferin 4-monooxygenase (Photinus pyralis, UniProt P08659); test: inhibition of purified Photinus pyralis luciferase – biochemical, luminescence, dose response (AID 1891)
Chain of Luciferin 4-monooxygenase (P08659 whole entry): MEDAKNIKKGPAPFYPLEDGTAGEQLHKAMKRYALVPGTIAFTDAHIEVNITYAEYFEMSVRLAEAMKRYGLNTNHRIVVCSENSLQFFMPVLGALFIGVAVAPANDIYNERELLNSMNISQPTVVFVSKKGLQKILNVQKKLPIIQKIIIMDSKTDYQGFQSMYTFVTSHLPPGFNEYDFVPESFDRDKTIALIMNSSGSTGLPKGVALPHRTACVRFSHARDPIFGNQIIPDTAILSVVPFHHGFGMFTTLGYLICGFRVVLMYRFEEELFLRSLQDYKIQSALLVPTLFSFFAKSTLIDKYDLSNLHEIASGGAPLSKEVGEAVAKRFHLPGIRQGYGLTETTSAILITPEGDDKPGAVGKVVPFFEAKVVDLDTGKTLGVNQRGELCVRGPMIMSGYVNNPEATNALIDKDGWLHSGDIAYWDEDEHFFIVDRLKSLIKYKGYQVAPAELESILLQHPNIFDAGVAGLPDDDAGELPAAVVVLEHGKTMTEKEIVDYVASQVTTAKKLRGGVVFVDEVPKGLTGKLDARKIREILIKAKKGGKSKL

[3] = biological target: T1, DNA repair protein RAD52 homolog (Homo sapiens, UniProt P43351); format: functional, biochemical
T1 sequence (P43351 whole entry): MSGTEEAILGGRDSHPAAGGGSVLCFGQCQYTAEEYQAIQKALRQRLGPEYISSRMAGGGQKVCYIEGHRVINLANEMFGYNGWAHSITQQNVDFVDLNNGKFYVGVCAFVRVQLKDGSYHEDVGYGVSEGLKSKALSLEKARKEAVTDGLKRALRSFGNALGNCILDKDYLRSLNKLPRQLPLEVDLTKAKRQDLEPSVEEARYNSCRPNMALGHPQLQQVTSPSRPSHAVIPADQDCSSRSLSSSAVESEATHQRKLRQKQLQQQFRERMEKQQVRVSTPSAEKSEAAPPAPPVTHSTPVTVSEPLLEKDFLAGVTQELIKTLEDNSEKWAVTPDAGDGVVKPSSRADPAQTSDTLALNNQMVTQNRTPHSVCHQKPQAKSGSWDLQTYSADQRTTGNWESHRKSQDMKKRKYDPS

[4] = biological target: T2, Calpain-2 catalytic subunit (Sus scrofa, UniProt P43367); test: m-calpain protease blockers, concentration series – biochemical, fluorogenic peptide substrate, dose response (AID 1420); format: functional
T2 sequence (P43367 whole entry): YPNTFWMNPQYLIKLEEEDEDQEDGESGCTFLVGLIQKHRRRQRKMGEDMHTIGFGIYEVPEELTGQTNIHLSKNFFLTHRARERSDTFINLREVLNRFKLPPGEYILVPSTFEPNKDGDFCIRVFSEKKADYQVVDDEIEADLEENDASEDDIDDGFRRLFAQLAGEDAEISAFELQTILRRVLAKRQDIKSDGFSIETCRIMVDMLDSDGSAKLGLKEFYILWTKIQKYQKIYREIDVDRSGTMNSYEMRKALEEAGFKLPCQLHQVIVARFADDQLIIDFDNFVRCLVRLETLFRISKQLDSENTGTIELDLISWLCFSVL

[5] = luciferase reporter signal suppression in cells – H4 neuroglioma cells, luminescence, dose response (AID 1990); format: functional, cell-based
[6] = Luminescence Cell-Based Dose Response HTS to Identify Inhibitors of 5'UTR Stem-Loop Driven Prion Protein mRNA Translation in H4 Neuroglioblastoma Cells. [Related pubchem assays: 1827 (Project Summary), 1813 (Primary HTS)]; format: functional
[7] = alpha-synuclein stem-loop luciferase translation blockers – H4 neuroglioma cells, luminescence, confirmation (AID 1988); format: functional, cell-based
[8] = system: H9c2; test: cells; format: functional, cell-based; settings: Rattus norvegicus, H9c2, Myocardium;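 also: confirmatory concentration-response retest of ultra-high-throughput screening hits for modulation of myocardial damage; cell death induced by hydrogen peroxide oxidative stress; compound pretreatment for 60 min then peroxide exposure for 2 h; potency is for protecting the cells against peroxide damage rather than for killing them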
[9] = biological target: T3, Streptokinase A (Streptococcus pyogenes serotype M1, UniProt P10520); test: viability-normalized secreted streptokinase activity reduction – plasminogen activation absorbance, OD405, dose response (AID 1914); format: functional, Streptococcus pyogenes M1 GAS;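 also: secreted streptokinase activity via plasminogen activation per viability signal from cell pellet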
T3 sequence (P10520 whole entry): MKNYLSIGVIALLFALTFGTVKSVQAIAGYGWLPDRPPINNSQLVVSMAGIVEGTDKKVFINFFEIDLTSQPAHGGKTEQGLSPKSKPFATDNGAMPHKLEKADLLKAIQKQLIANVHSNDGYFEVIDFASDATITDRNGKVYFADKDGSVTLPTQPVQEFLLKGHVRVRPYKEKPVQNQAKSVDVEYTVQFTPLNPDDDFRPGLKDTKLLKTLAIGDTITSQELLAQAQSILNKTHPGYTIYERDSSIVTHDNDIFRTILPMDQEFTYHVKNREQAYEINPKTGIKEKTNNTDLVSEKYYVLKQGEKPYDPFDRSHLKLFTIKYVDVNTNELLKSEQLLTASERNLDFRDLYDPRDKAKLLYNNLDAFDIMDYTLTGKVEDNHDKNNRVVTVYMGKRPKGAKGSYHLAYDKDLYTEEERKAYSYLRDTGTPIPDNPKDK

[10] = system: Streptococcus; test: GAS UMAA2166 growth inhibition – luminescence, BacTiterGlo, counter-screen for streptokinase expression inhibitor project, dose response (AID 1915); format: functional, organism-based;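 also: potency for reduction of bacterial viability or growth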
[11] = system: INS1; test: INS-1E survival protection against cytokine death – cell-based, luminescence, retest, dose response (AID 449756); format: functional; settings: Rattus norvegicus;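 also: cell death triggered by IL-1 beta plus TNF-alpha plus IFN-gamma mixture; protective hits raise ATP signal compared with cytokine alone wells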
[12] = system: Vero; test: cells; format: functional; settings: Chlorocebus sabaeus
[13] = system: Streptococcus sp. 'group A'; test: Streptococcus pyogenes SK(-)GAS viability under kanamycin – luminescence, BacTiterGlo, confirmation, counter-screen for streptokinase expression inhibitor project, dose response (AID 1900); format: functional, organism-based
[14] = biological target: T4, RNA-binding protein pos-1 (Caenorhabditis elegans, UniProt G5EF15); test: disruptors of C. elegans POS-1 RNA interaction – biochemical, fluorescence polarization, dose response (AID 1964);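 also: purified POS-1 fused to maltose binding protein made in E. coli; potency of compounds blocking POS-1 binding to fluorescent RNA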
T4 sequence (G5EF15 whole entry): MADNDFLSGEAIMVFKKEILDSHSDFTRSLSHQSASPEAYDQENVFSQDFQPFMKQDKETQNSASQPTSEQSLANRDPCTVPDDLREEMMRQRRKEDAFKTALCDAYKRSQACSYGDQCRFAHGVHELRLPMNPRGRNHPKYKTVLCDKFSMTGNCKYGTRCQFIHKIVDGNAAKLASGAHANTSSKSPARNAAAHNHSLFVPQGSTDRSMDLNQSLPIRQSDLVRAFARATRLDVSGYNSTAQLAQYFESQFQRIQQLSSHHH

[15] = biological target: T5, Zinc finger protein mex-5 (Caenorhabditis elegans, UniProt Q9XUB2); test: potency of MEX-5 RNA-binding blockers – biochemical, C. elegans, fluorescence polarization, dose response (AID 1960)
T5 sequence (Q9XUB2 whole entry): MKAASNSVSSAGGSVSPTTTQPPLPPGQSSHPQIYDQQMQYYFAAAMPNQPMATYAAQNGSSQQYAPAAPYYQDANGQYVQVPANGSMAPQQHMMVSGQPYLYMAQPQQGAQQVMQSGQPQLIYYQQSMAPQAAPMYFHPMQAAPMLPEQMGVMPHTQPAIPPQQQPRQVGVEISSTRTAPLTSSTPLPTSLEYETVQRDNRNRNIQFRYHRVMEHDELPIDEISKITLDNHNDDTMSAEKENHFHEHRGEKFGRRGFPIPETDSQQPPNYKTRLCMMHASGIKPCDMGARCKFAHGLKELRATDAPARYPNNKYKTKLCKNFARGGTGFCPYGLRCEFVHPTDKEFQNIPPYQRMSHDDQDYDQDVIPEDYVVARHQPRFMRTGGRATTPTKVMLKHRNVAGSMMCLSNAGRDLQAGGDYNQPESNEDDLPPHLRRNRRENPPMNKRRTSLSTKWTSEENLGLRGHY

[16] = biological target: Cytochrome P450 3A4 (Homo sapiens, UniProt P08684);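 also: CYP3A4 tested as one member of a cytochrome P450 panel screen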
Chain of Cytochrome P450 3A4 (P08684 whole entry): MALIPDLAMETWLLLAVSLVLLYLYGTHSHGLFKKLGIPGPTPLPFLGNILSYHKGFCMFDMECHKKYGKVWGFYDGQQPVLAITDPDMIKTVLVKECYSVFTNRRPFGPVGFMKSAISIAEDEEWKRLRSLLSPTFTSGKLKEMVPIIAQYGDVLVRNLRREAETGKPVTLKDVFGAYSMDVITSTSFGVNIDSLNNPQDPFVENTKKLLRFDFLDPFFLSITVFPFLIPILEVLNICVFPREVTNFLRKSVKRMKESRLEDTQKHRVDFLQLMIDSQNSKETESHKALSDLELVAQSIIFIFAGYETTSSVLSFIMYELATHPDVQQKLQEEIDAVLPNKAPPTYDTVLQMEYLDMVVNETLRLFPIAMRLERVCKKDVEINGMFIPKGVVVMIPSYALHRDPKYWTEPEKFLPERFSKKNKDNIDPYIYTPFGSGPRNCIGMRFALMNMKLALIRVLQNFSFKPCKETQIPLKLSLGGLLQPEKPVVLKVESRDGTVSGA

[17] = biological target: Cytochrome P450 2C19 (Homo sapiens, UniProt P33261); test: Cytochrome panel assay with activity outcomes. Panel member name: p450-cyp2c19 Compounds with AC50 equal or less than 10 uM are considered active; format: functional
Chain of Cytochrome P450 2C19 (P33261 whole entry): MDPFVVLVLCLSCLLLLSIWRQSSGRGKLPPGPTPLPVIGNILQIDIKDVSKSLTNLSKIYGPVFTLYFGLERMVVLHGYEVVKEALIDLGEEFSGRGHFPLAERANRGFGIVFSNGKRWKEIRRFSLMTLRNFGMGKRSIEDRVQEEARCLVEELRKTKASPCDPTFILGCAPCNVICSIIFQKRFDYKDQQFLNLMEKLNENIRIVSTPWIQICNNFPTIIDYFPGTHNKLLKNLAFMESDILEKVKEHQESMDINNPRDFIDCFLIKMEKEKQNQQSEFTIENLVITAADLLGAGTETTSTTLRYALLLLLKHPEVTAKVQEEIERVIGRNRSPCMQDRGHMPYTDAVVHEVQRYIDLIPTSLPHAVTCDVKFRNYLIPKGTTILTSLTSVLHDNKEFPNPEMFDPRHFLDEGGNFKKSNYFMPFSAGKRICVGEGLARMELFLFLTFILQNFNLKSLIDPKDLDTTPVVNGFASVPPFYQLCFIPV

For `CCn1ccc(C(=O)Nc2c(C)nn(Cc3c(F)c(F)c(F)c(F)c3F)c2C)n1`, the EC50 [1] was > 112 µM (not active) and the EC50 [2] was > 112 µM (not active).
In the case of `Cc1ccc2c(c1)c1c3n2CCN(CC(O)CNC(C)C)C3CCC1` (stereo not given), the AC50 [3] was 15.8 µM (active).
With `COc1ccc2nc(NCCN=C(S)NCCCN3CCOCC3)c(C#N)cc2c1` the AC50 [3] was 9.87 µM (active).
In the case of `CCC(=O)N1CCc2cc(S(=O)(=O)N3CCc4ccccc4C3)ccc21`, the IC50 [4] was < 0.4 µM (not active).
With `CCOc1ccc(NC(=S)N2CCC(NC(=O)c3ccccc3C)CC2)cc1` the EC50 [5] was > 120 µM (not active), the EC50 [6] was > 120 µM (not active) and the EC50 [7] was > 120 µM (not active).
With `CC(C)(C)c1ccc(OCC(=O)Nc2ccc3c4c(cccc24)C(=O)NC3=O)cc1` the EC50 [5] was > 120 µM (not active), the IC50 [8] was 20.9 µM (active) and the EC50 [6] was 10.8 µM (active). The EC50 [7] was > 120 µM (not active).
With `O=C1c2ccc3c4c(ccc(c24)C(=O)N1c1cccc(O)c1)C(=O)N(c1cccc(O)c1)C3=O` the EC50 [5] was 17.1 µM (active), the EC50 [9] was > 150 µM (not active) and the EC50 [10] was 1.29 µM (active). For the same compound, the EC50 [6] was 85.7 µM (active), the EC50 [7] was 15.1 µM (active) and the AC50 [11] was 0.848 µM (active). For the same compound, the CC50 [12] was > 25 µM (active) and the EC50 [13] was 1.22 µM (active).
In the case of `CC(C)N1CCc2c(sc(NC(=O)c3ccc4ccccc4c3)c2C(N)=O)C1`, the EC50 [14] was > 300 µM (not active), the EC50 [15] was > 300 µM (inconclusive) and the CC50 [12] was > 25 µM (active).
In the case of `Cc1ccc(SCCN=C(S)Nc2cc(C)cc(C)c2)cc1`, the IC50 [4] was 6.82 µM (not active).
In the case of `COc1ccc(N(C(=O)Cn2nnc(-c3ccccc3F)n2)C(C(=O)NCC2CCCO2)c2ccc(Cl)cc2)cc1` (stereo not given), the IC50 [4] was > 50 µM (not active).
For `CC(C)C[C@H](NC(=O)[C@@H]1O[C@H]1C(=O)O)C(=O)NCCCCN=C(N)N`, the AC50 [16] was 0.158 µM (inconclusive), the AC50 [17] was “inconclusive” and the IC50 [4] was > 50 µM (not active).
For `O=C(Nc1cccc(-c2nnc(-c3ccco3)o2)c1)c1ccccc1`, the IC50 [4] was 2.37 µM (not active).
For `CCOc1cc2c(cc1C(C)(C)C)NC(=O)CS2`, the EC50 [1] was > 112 µM (not active) and the EC50 [2] was > 112 µM (not active).
In the case of `Cc1noc(C)c1CSc1nnc2scc(-c3ccc(Cl)cc3)n12`, the EC50 [1] was > 112 µM (not active) and the EC50 [2] was > 112 µM (not active).
For `Fc1ccccc1Nc1nc2ccccc2o1`, the EC50 [1] was 4.57 µM (active) and the EC50 [2] was 0.83 µM (active).
